Experimental data from patent publication US6486161B1, “Use of rifamycin derivative for treating mastitis in a domestic animal” (priority 2000, dated 2002).

Legend:
[1] = tested on: Staphylococcus aureus B83-1 strain (derived from Newbould 305); assay: Therapeutic test in bovine mammary glands with experimental mastitis; type: in vivo, Holstein dairy cow
Procedure: As the rifamycin derivative (1), a compound A wherein R is methyl group, i. e. R≡ CH3, was examined for its therapeutic effect on bovine mastitis as follows.
The therapeutic test for infection in bovine mammary glands was carried out by inoculating […] of Staphylococcus [Staphylococcus aureus B83-1 strain (derived from Newbould 305)] into one mammary gland of a Holstein dairy cow (2-5 years old) to cause experimental mastitis.
To one mammary gland of each cow in a treated group, the compound A used in the present invention was administered (infused through the lactiferous duct) in an amount of 50 mg in 10 ml of benzyl alcohol per day successively for two days, twenty-one days after the infection. To one mammary gland of each cow in a control group, benzyl alcohol was administered in an amount of 10 ml per day in the same manner as in the treated group. The therapeutic effect of the compound A was examined by counting colony forming units (CFUs) of Staphylococcus in 1 ml of milk obtained from a cow subjected to the test. Comparing the above two groups, the therapeutic effect of the compound A on bovine mastitis was evaluated.
Staphylococcus was inoculated into forty-four mammary glands of eleven cows. Twenty-one days later, the number of mammary glands wherein Staphylococcus was separated from milk, i.e. number of mammary glands with mastitis, was counted. […]

[2] = Oral toxicity in mice; type: in vivo; conditions: orally administered to mice, 1,000 mg/kg

## COC1/C=C/OC2(C)Oc3c(C)c(O)c4c(=O)c(c5oc6cc(N7CCN(C)CC7)cc(O)c6nc-5c4c3C2=O)NC(=O)/C(C)=C\C=C\C(C)C(O)C(C)C(O)C(C)C(OC(C)=O)C1C (stereo not drawn) [R = methyl]
[1]; cow, 50 mg per day for two days infused through the lactiferous duct, twenty-one days after infection
  curing ratio: 64%
[1]; of twenty-two treated mammary glands, 50 mg in 10 ml benzyl alcohol per day for two days via lactiferous duct, 7-28 days after administration
  mammary glands negative (at most ten CFU per ml milk) in all the examined days: fourteen
[2]
  toxicity: did not show any toxicity
